molecular target: T1, human CCR2 (Homo sapiens, UniProt P41597); test: CCR2 Membrane Binding Assay (SPA radio-ligand binding, 125I-rhMCP-1); details: membranes from Ba/F3 cells transfected with human CCR2; 0.03 nM 125I-rhMCP-1; 4 h room temperature
T1 construct: expressed in transfected cells; host or cells: Ba/F3 cells (membranes)
Procedure: The radio-ligand binding assay was done using scintillation proximity assay (SPA) technology. Briefly, membranes (1 μg per assay point) from Ba/F3 cells transfected with human CCR2, and wheat germ agglutinin-coated SPA beads (80 μg per point; Amersham, Arlington Heights,Ill.), were pre-incubated for 30 min at room temperature in CCR2 buffer (50 mM HEPES (pH=7.4), 10 mM MgCl2, 10 mM NaCl, 1 mM CaCL2, 0.1% BSA,10 μg/ml Saponin). At this point pre-bound SPA bead, membrane complex was incubated at room temperature for 4 h with varying concentrations of punitive CCR2 antagonists (in 1% DMSO, final) and 0.03 nM ^125I-rhMCP-1 in CCR2 Buffer (S.A. 2200 Ci/mmol, PerkinElmer Life and Analytical Science, Boston, Mass.; NEX332). Binding competition was measured using a 1450 Microbeta Trilux counter(Wallac, Gaithersburg, Md.). Binding constants (IC50 and slope) were calculated using GraphPad Prism software(GraphPad Software, Inc., La Jolla Calif.).

T1 sequence (P41597 whole entry): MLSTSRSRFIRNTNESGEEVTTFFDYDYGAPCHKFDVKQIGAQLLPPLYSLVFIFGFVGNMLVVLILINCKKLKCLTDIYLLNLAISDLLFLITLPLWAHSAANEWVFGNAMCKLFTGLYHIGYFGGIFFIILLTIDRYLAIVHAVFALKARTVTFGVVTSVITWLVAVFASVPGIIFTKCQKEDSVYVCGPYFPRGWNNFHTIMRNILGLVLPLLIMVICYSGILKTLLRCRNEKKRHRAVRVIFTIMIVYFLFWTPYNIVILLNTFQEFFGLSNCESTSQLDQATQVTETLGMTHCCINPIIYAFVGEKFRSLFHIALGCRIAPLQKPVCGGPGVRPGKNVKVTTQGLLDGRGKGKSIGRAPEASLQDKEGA

IC50 [nM] | SMILES
12.5 | O=C(NC1CCN(CCN2CCCCCC2)CC1)c1cc2c(OCc3ccccc3)cccc2[nH]1 [Compound 14]
13 | O=C(NC1CCN(CCN2CCCCCC2)CC1)c1cc2c(ccc3cc(-c4ccccc4)oc32)[nH]1 [Compound 17]

Further lines, the compound ahead of its results:

SMILES | IC50 [nM]
CC(C)c1cc2ccc3[nH]c(C(=O)NC4CCN(CCN5CCCCCC5)CC4)cc3c2o1 [Compound 2] | 5.4
CC(C)COc1cc2c(c3[nH]c(C(=O)NC4CCN(CCN5CCCCCC5)CC4)cc13)CCC2 [Compound 16] | 40
CC(C)COc1cccc2[nH]c(C(=O)NC3CCN(CCN4CCCCCC4)CC3)cc12 [Compound 10] | 4

same assay, conditions: membranes from Ba/F3 cells transfected with human CCR2; 0.03 nM 125I-rhMCP-1; class symbols

IC50 [nM] | SMILES
201 to 900 | Cc1c(C(=O)NC2CCN(CCN3CCCCCC3)CC2)[nH]c2ccc3ccccc3c12 [Compound 8]
51 to 200 | Cc1cc2ccc3[nH]c(C(=O)NC4CCN(CCN5CCCCCC5)CC4)cc3c2o1 [Compound 5]
51 to 200 | O=C(NC1CCN(CCN2CCCCCC2)CC1)c1cc2c(cc(F)c3ccccc32)[nH]1 [Compound 9]
51 to 200 | O=C(NC1CCN(CCN2CCCCCC2)CC1)c1cc2c(ccc3ccccc32)[nH]1 [Compound 4]
51 to 200 | CCOc1cc2[nH]c(C(=O)NC3CCN(CCN4CCCCCC4)CC3)cc2c2ccccc12 [Compound 20]
201 to 900 | COc1cc2[nH]c(C(=O)NC3CCN(CCN4CCCCCC4)CC3)cc2c2ccccc12 [Compound 11]
201 to 900 | COc1cccc2[nH]c(C(=O)NC3CCN(CCN4CCCCCC4)CC3)cc12 [Compound 12]

Further lines, the compound ahead of its results:

SMILES | IC50 [nM]
O=C(NC1CCN(CCN2CCCCCC2)CC1)c1cc2c3c(c(F)cc2[nH]1)CCO3 [Compound 7] | 201 to 900
O=C(NC1CCN(CCN2CCCCCC2)CC1)c1cc2c(cc(F)c3ccoc32)[nH]1 [Compound 6] | 201 to 900
O=C(NC1[C@H]2CN(CCN3CCCCCC3)C[C@@H]12)c1cc2c(ccc3cc(-c4ccccc4)oc32)[nH]1 (stereo partly shown) [Compound 19] | 51 to 200
O=C(NC1CCN(CCN2CCCCC2)CC1)c1cc2c(cc(F)c3ccoc32)[nH]1 [Compound 13] | 201 to 900
O=C(NC1CCN(CCN2CCCCCC2)CC1)c1cc2c3ccccc3ccc2n1Cc1ccccc1 [Compound 18] | 201 to 900
CC(C)c1cc2ccc3[nH]c(C(=O)N[C@H]4[C@@H]5CN(CCN6CCCCCC6)C[C@@H]54)cc3c2o1 [Compound 3] | 51 to 200
CC(C)c1cc2ccc3[nH]c(C(=O)NC4CC45CCN(CCN4CCCCCC4)CC5)cc3c2o1 (stereo not shown) [Compound 15] | 51 to 200
